Measurements published in US20120245343A1, “ARGININE DERIVATIVES OR SALTS THEREOF EXHIBITING THE EFFECTS OF IMPROVING SEXUAL FUNCTION, COMPOSITION FOR IMPROVING SEXUAL FUNCTION COMPRISING SAME, AND METHOD FOR PREPARING SAME” (priority 2009, published 2012).

Experiments:
arginase = details: for Km: read-out: Km of arginase; for Km / Vmax of arginase: substrate of arginase, 55° C., 10 minutes, pH 10.0
Experimental: 20 mU arginase was dissolved in 150 μL of 0.1M carbonate-bicarbonate buffer (pH 10.0). […] After that, 750 μL of acetic acid was added to the reaction mixture so as to stop the reaction. Then, 250 μL of ninhydrin solution was added to the mixture and was reacted at 100° C. for 1 hour. The reaction mixture was cooled and the absorbance was measured at 515 nm using ELISA reader.
A standard curve was created by using 0.01-10 μM of L-ornithine, and then the arginase activity was calculated and represented from the ornithine standard curve.

eNOS = test: Expression of eNOS in penile tissues by immunoblotting; assay type: in vivo; details: male Sprague-Dawley rats, orally administered for 7 days twice a day; AFG 200 and 400 mg/kg/day, BGE 400 mg/kg/day; vs control group; FIG. 8
Experimental: (§1) 8 weeks old male Sprague-Dawley rats were obtained from Orient Co., Ltd. (Korea) and used as exprimental animals. A breeding cage was conditioned with artificial lighting for 12 hours (8:00 a.m. to 8:00 p.m) and maintained at 20±3° C. The rats were provided with purified water and fed with pellet diet (Samyang diet, Korea). Food and water were not limited and supplied to the rats at a certain time of 9:00 a.m. to 10:00 a.m. every day.
(§2) 8 weeks old male Sprague-Dawley rats were allowed to be adapted to the environment of the breeding cage. […] The amount of dietary intake was measured at a certain time of 9:00 a.m. to 10:00 a.m. every day. […]
(§3) After quickly pouring liquid nitrogen into the tissues and pulverizing the tissues, proteins were extracted by RIPA lysis buffer (pH 7.4) containing 50 mM Tris-HCl, 1% NP-40, 0.25% sodium deoxycholate, 150 mM NaCl, 1 mM EDTA, 1 mM PMSF, 1 mM sodium orthovanadate, 1 mM NaF, 1 mg/mL aprotinin, 1 mg/mL leupeptin and 1 mg/mL pepstatin. After quantifying the extracted proteins using Bio-Rad protein assay kit, 30 μg and 40 μg of proteins were separated by SDS-PAGE using 8% acrylamide gel for 2 hours, and transferred to nitrocellulose membrane with being blocked by 2% BSA. […]

nNOS = test: Expression of nNOS in penile tissues by immunoblotting; assay type: in vivo; details: male Sprague-Dawley rats, orally administered for 7 days twice a day; AFG 200 and 400 mg/kg/day, BGE 400 mg/kg/day; vs control group; FIG. 8
Experimental: as §1, §2, §3

nitric oxide (NO) = test: Measurement of nitric oxide (NO) in penile tissues; assay type: in vivo; details: male Sprague-Dawley rats, orally administered for 7 days twice a day; AFG 200 and 400 mg/kg/day, BGE 400 mg/kg/day; vs control group; FIG. 9
Experimental: as §1
8 weeks old male Sprague-Dawley rats were allowed to be adapted to the environment of the breeding cage. Depending on their body weight, the rats were divided into 5 groups of control group (saline), Viagra® group (1.7 mg/kg/day), two AFG groups (200 and 400 mg/kg/day) and BGE (conventional red ginseng) group (400 mg/kg/day) and orally administered for 7 days twice a day (in the morning and in the afternoon). The amount of dietary intake was measured at a certain time of 9:00 a.m. to 10:00 a.m. every day. […]
The amount of the produced nitric oxide was measured by a method which slightly modifies methods proposed by Park (J. Ethnopharmacol, 2004) and Knowles (Biochem. J, 1990). […]
For 200 μL of the supernatant, the fluorescence intensity of DAF was measured at 485 nm of excitation wavelength and at 535 nm of emission wavelength using a fluorescence reader (TECAN Trading AG, Switzerland).

cGMP = test: Measurement of cGMP in penile tissues; assay type: in vivo; details: male Sprague-Dawley rats, FIG. 10
Experimental: as §1
8 weeks old male Sprague-Dawley rats were allowed to be adapted to the environment of the breeding cage. Depending on their body weight, the rats were divided into 5 groups of control group (saline), Viagra® group (1.7 mg/kg/day), two AFG groups (200 and 400 mg/kg/day) and BGE (conventional red ginseng) group (400 mg/kg/day) and orally administered for 7 days twice a day (in the morning and in the afternoon). The amount of dietary intake was measured at a certain time of 9:00 a.m. to 10:00 a.m. every day.
After the end of feeding period, the rats were fasted for 12 hours and anesthetized with […]. […]
The concentration of cGMP was measured by a method which slightly modifies methods proposed by Park (J. Ethnopharmacol, 2004) and Knowles (Biochem. J, 1990). […]
A standard curve was created by using 0.8-50 pmol/mL of cGMP, and the concentration of cGMP was measured by cGMP ELISA kit (Aassay Designs, Inc., Michigan). […]

activated eNOS = test: Expression of activated eNOS in endothelial cells; assay type: cell-based; details: immunoblotting, FIG. 11
Experimental: Endothelial cells (BAECs) previously treated with the samples were washed with cold PBS buffer (pH 7.2) twice and then treated with RIPA lysis buffer [50 mM Tris-HCl, 150 mM NaCl, 0.5% sodium deoxycholate, 1% NP 40, 1% phosphatase inhibitor cocktail, 1 mM PMSF] in 150 μL/well to collect cell extracts. The protein content of the collected cell extracts was determined using Bradford assay, and then 25 μg of the protein was separated by using SDS-PAGE and transferred to nitrocellulose membrane. The nitrocellulose membrane was blocked with 1% BSA (Bovine serum albumin) solution at room temperature for 1 hour, and reacted with a primary antibody specific for the target protein at 4° C. for 12 hours. Upon completion of the reaction, the nitrocellulose membrane was washed with TBST (10 mM Tris-HCl, 150 mM NaCl, 0.05% NP 40) several times, and reacted with a secondary antibody binding to HRP (Horse radish peroxidase) at room temperature for 1 hour. After that, the nitrocellulose membrane was washed again with TBST and the target protein was confirmed by using ECL solution. To identify the target protein, luminesent image analyzer (LAS 4000 mini) were used. […] It is possible to produce nitric oxide (NO) when eNOS is phosphorylated to be activated. […]

N=C(N)NCCC[C@H](N)C(=O)O [Arginine, L-arginine]
Km (arginase): 12 µM | Vmax of arginase (arginase): 1,000 μmoles/min

NC(N)=NCCC[C@H](NC[C@@]1(O)OC[C@@H](O)[C@@H](O[C@@H]2O[C@H](CO)[C@@H](O)[C@H](O)[C@H]2O)[C@@H]1O)C(=O)O [AFG, arginyl-fructosyl-glucose]
expression of eNOS in the penile tissues (eNOS): increased | expression of nNOS in the penile tissues (nNOS): increased | production of nitric oxide (NO) in the penile tissues (nitric oxide (NO)): increased | concentration of cGMP in the penile tissues (cGMP; orally administered for 7 days twice a day, AFG 200 and 400 mg/kg/day, BGE 400 mg/kg/day, Viagra 1.7 mg/kg/day, vs negative control group): increased | increase of the concentration of cGMP compared with the positive control group of Viagra (cGMP; penile tissues): less than the positive control group | expression of the activated eNOS in the endothelial cells (BAECs) (activated eNOS): increased | decomposition rate of arginase as compared with arginine (arginase): very low | Km (arginase): 129 µM | Vmax of arginase (arginase): 588 µmol/min
